According to patent US10190093B2, “Artificial oocyte activation” (The Curators of the University of Missouri, priority 2013, dated 2019):
Marks after values point to notes of the source that are not given here.

Columns and labels:
SCNT embryos = experiment: In vitro development of SCNT embryos treated with Scriptaid or TPEN; assay type: cell-based, pig; conditions: SCNT + Scriptaid
Protocol: Activated oocytes were washed three times in PZM3 then incubated at 38.5° C., 5% CO2 until the embryos were examined on either day 2, 6 or 7. At the end of the culture, where applicable, the frequency of cleaved embryos and blastocysts, and total cell number in the blastocysts were recorded. Hoechst 33342 (1.2 mg/mL) was used to stain nuclei and the embryos were then evaluated by epi-fluorescence microscopy.
Next, the optimal concentration and duration of TPEN ([…], 30 min) was used to artificially activate reconstructed SCNT embryos. […] Thus lower concentrations of TPEN (5-10 μM) can enhance embryo development when introduced after conventional oocyte activation.

MII oocytes = experiment: Intracellular calcium measurement (fura-2); assay type: cell-based, pig; conditions: oocytes incubated with thimerosal, positive control
Protocol: The zonae pellucidae were removed after maturation and zona-free oocytes were loaded with the Ca^2+ indicator dye, fura-2. For this purpose, they were incubated in the presence of […] of the acetoxymethyl ester form of the dye and 0.02% pluronic F-127 for 40-50 min (both from Invitrogen). The dye loaded oocytes were transferred into a chamber with a cover-glass bottom and the chamber was then placed on the heated stage of an inverted microscope. Changes in the intracellular free Ca^2+ concentration were recorded using InCytIm2, a dual-wavelength fluorescence imaging system (Intracellular Imaging, Inc.; Cincinnati, Ohio). During measurements the emitted fluorescence was detected at 510 nm after exciting the dye alternately at 340 and 380 nm. The ratio of the two emitted fluorescence intensities was calculated and the data are presented as fluorescence ratio values. Ratios of 1.0 and 5.0 correspond to about 100 and 1,200 nM Ca^2+, respectively. In each treatment group the measurements were repeated at least 5 times using different oocytes.

| SMILES | % blastocysts (SCNT embryos) | intracellular Ca2+ increase (MII oocytes) |
| --- | --- | --- |
| O=C(CCCCCN1C(=O)c2cccc3cccc(c23)C1=O)NO [Scriptaid] | 22.7%^b |  |
| C[CH2][Hg][S]c1ccccc1C(=O)[O-].[Na+] [thimerosal] |  | could induce Ca^2+ increase |
